Test results: patent US20230391781A1, “MALT1 MODULATORS AND USES THEREOF” (Rheos Medicines, Inc., priority 2020, published 2023)
Counter-ions that a name gives are not always drawn. Like-named read-outs stand apart in the source and are kept apart here.

How the values were obtained:
full length MALT1 = full length MALT1 (Homo sapiens (Human), UniProt Q9UDY8); experiment: MALT1 Biochemical Assay; settings: 15 nM enzyme, 30 μM peptide substrate Ac-Leu-Arg-Ser-Arg-Rh110-dPro, 30 min pre-incubation, 60 min reaction; mean value if tested more than once
Chain of full length MALT1 (Q9UDY8 whole entry): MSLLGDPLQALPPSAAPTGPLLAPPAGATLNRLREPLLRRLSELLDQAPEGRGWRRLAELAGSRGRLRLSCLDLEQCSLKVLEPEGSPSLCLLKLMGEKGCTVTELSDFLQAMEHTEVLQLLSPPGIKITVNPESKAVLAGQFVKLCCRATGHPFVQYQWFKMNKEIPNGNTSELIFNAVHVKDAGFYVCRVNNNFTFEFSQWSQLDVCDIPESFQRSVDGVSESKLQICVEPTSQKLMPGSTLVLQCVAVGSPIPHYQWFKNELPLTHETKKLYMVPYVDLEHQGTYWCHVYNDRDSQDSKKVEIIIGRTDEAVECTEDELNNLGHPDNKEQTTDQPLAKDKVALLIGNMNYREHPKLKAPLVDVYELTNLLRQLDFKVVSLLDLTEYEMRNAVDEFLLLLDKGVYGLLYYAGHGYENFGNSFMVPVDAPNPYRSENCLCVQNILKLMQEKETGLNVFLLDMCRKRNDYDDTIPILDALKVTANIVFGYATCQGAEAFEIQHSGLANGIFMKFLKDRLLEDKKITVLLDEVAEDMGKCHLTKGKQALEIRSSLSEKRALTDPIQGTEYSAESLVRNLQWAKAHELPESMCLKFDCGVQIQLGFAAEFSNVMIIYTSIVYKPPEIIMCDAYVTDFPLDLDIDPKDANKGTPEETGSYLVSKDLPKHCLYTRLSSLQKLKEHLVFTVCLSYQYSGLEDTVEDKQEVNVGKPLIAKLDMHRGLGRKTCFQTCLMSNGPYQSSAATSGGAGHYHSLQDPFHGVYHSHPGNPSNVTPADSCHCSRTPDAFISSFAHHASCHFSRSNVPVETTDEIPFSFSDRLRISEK
Protocol: Inhibitor potency was evaluated by measuring enzymatic activity of full length MALT1 at varying concentrations of compound. The enzymatic assay consists of a single substrate reaction that monitors the release of a fluorescent dye upon cleavage of the peptide substrate. […] The assay buffer consists of 50 mM Hepes, pH 7.5, 0.8 M sodium citrate, 1 mM DTT, 0.004% tween-20, and 0.005% bovine serum albumin (BSA). […] The reaction was quenched after 60 minutes with the addition of iodoacetate at a final concentration of 10 mM. Total fluorescence was measured using an Envision (PerkinElmer) with fluorescence excitation at 485 nm and emission at […].
For potency determination, 1 μL of serially diluted compound (in 100% DMSO) was pre-incubated with 40 μL of enzyme for 30 minutes. The reaction was initiated with the addition of 10 μL of peptide substrate. The relative fluorescence units were transformed to percent inhibition by using 0% and 100% inhibition controls as reference. […] IC50 values were calculated by fitting the concentration-response curves to a four-parameter logistic equation in GraphPad Prism.

[1] = tested on: IL-2 in Jurkat (ATCC, clone E6.1) cells stimulated with anti-CD3/28/2; experiment: Jurkat IL-2 Assay; assay type: cell-based; settings: Homo sapiens
Protocol: Inhibition was determined in a cell-based assay using Jurkat (ATCC, clone E6.1), an immortalized T-cell line, exposed to a dose response of compound and assessed for viability, and Il-2 inhibition by ELISA. Cells were cultured in RPMI/10% FBS (Invitrogen 11875093, Atlanta Biologicals S12450H), maintained below 3E6/mL and only used in assays while below passage 25. Compounds were stamped by ECHO onto 384w plates (PerkinElmer Culturplate, 6007680). The cells were plated in fresh media on top of compound and incubated for 30 minutes before stimulation with soluble anti-CD3/28/2 (Stemcell, 10970) for 24 hours. Supernatant was collected and assessed for Il-2 (MSD, 384w, L21SA-1). To assess viability of cells treated with compound, cells were lysed with CTG reagent (Promega, G7570), and measured by luminometer. […] IC50s calculated using 4-parameter fit in GraphPad Prism.
In this table, “A” indicates IC50 of less than 0.1 μM; “B” indicates IC50 from 0.1 μM up to 1 μM; and “C” indicates IC50 of greater than 1 μM. “N/A” indicates not tested. For a compound that was tested in more than one experiment, the result shown represents the mean value.

[2] = IL-2 inhibition, Jurkat cells, 30 min compound then anti-CD3/28/2 stimulation for 24 hours, mean value if tested more than once, read-out: IC50

Row | Structure (SMILES) | IC50 (full length MALT1) [µM] | IC50 [1, 2] [µM] | IC50 ([1]; Jurkat) [µM]
1 | CO[C@@H](C)c1c(Nc2ccc([C@H](N(C)C(=O)C3CCN(C(=O)C4CC4)C3)C(F)(F)F)cc2)cnc2nc(Cl)nn12 (stereo partly drawn) [Compound 4.3, N-[(1S)-1-[4-({2-chloro-7-[(1S)-1-methoxyethyl]-[1,2,4]triazolo[1,5-a]pyrimidin-6-yl}amino)phenyl]-2,2,2-trifluoroethyl]-1-cyclopropanecarbonyl-N-methylpyrrolidine-3-carboxamide] | < 0.1 | 0.1 to 1 | –
2 | CO[C@@H](C)c1c(Nc2ccc([C@H](N(C)C(=O)C3CCNCC3)C(F)(F)F)cc2)cnc2nc(Cl)nn12 [Compound 2.1, N—((S)-1-(4-((2-chloro-7-((S)-1-methoxyethyl)-[1,2,4]triazolo[1,5-a]pyrimidin-6-yl)amino)phenyl)-2,2,2-trifluoroethyl)-N-methylpiperidine-4-carboxamide trifluoroacetate] | 0.1 to 1 | – | 0.1 to 1
3 | COC(=O)NC1CCC(C(=O)N(C)[C@@H](c2ccc(Nc3cnc4nc(Cl)nn4c3[C@H](C)OC)cc2)C(F)(F)F)CC1 (stereo partly drawn) [Compound 1.16, methyl (4-(((S)-1-(4-((2-chloro-7-((S)-1-methoxyethyl)-[1,2,4]triazolo[1,5-a]pyrimidin-6-yl)amino)phenyl)-2,2,2-trifluoroethyl)(methyl)carbamoyl)cyclohexyl)carbamate] | < 0.1 | 0.1 to 1 | –
4 | CO[C@@H](C)c1c(Nc2ccc([C@H](N(C)C(=O)[C@H]3CC[C@H](OC)CC3)C(F)(F)F)cc2)cnc2nc(Cl)nn12 [Compound 1.14, (1r,4S)—N—((S)-1-(4-((2-chloro-7-((S)-1-methoxyethyl)-[1,2,4]triazolo[1,5-a]pyrimidin-6-yl)amino)phenyl)-2,2,2-trifluoroethyl)-4-methoxy-N-methylcyclohexane-1-carboxamide] | < 0.1 | 0.1 to 1 | –
5 | CO[C@@H](C)c1c(Nc2ccc([C@H](N(C)C(=O)C3CCS(=O)(=O)CC3)C(F)(F)F)c(C)c2)cnc2nc(Cl)nn12 [Compound 1.30, N-[(1S)-1-[4-({2-chloro-7-[(1S)-1-methoxyethyl]-[1,2,4]triazolo[1,5-a]pyrimidin-6-yl}amino)-2-methylphenyl]-2,2,2-trifluoroethyl]-N-methyl-1,1-dioxo-1λ^6-thiane-4-carboxamide] | 0.1 to 1 | > 1 | –
6 | CO[C@@H](C)c1c(Nc2ccc([C@H](N(C)C(=O)C3CCCN(S(C)(=O)=O)C3)C(F)(F)F)cc2)cnc2nc(Cl)nn12 (stereo partly drawn) [Compound 3.7, N-[(1S)-1-[4-({2-chloro-7-[(1S)-1-methoxyethyl]-[1,2,4]triazolo[1,5-a]pyrimidin-6-yl}amino)phenyl]-2,2,2-trifluoroethyl]-1-methanesulfonyl-N-methylpiperidine-3-carboxamide] | 0.1 to 1 | > 1 | –
7 | CO[C@@H](C)c1c(Nc2ccc(C(N(C)C(C)=O)C(F)(F)F)cc2)cnc2nc(Cl)nn12 (stereo partly drawn) [Compound 1.25, N-{1-[4-({2-chloro-7-[(1S)-1-methoxyethyl]-[1,2,4]triazolo[1,5-a]pyrimidin-6-yl}amino)phenyl]-2,2,2-trifluoroethyl}-N-methylacetamide] | 0.1 to 1 | > 1 | –
8 | CO[C@@H](C)c1c(Nc2ccc([C@H](N(C)C(=O)C3CCCCO3)C(F)(F)F)cc2)cnc2nc(Cl)nn12 (stereo partly drawn) [Compound 1.3, N-[(1S)-1-[4-({2-chloro-7-[(1S)-1-methoxyethyl]-[1,2,4]triazolo[1,5-a]pyrimidin-6-yl}amino)phenyl]-2,2,2-trifluoroethyl]-N-methyloxane-2-carboxamide] | 0.1 to 1 | 0.1 to 1 | –
9 | COC(=O)NCC1CCC(C(=O)N(C)[C@@H](c2ccc(Nc3cnc4nc(Cl)nn4c3[C@H](C)OC)cc2)C(F)(F)F)CC1 (stereo partly drawn) [Compound 3.12, methyl N-[(4-{[(1S)-1-[4-({2-chloro-7-[(1S)-1-methoxyethyl]-[1,2,4]triazolo[1,5-a]pyrimidin-6-yl}amino)phenyl]-2,2,2-trifluoroethyl](methyl)carbamoyl}cyclohexyl)methyl]carbamate] | < 0.1 | 0.1 to 1 | –
10 | CO[C@H](C)c1c(Nc2ccc([C@H](N(C)C(=O)C3CCS(=O)(=O)CC3)C(F)(F)F)cc2)cnc2nc(Cl)nn12 [Compound 10.1, N—((S)-1-(4-((2-chloro-7-((R)-1-methoxyethyl)-[1,2,4]triazolo[1,5-a]pyrimidin-6-yl)amino)phenyl)-2,2,2-trifluoroethyl)-N-methyltetrahydro-2H-thiopyran-4-carboxamide 1,1-dioxide] | 0.1 to 1 | 0.1 to 1 | –
11 | CO[C@@H](C)c1c(Nc2ccc([C@H](N(C)C(=O)C3CCOC3)C(F)(F)F)cc2)cnc2nc(Cl)nn12 (some centres unmarked) [Compound 1.6] | < 0.1 | 0.1 to 1 | –
12 | CNC(=O)N1CCCC(C(=O)N(C)[C@@H](c2ccc(Nc3cnc4nc(Cl)nn4c3[C@H](C)OC)cc2)C(F)(F)F)C1 (stereo partly drawn) [Compound 3.6, N3-[(1S)-1-[4-({2-chloro-7-[(1S)-1-methoxyethyl]-[1,2,4]triazolo[1,5-a]pyrimidin-6-yl}amino)phenyl]-2,2,2-trifluoroethyl]-N1,N3-dimethylpiperidine 1,3-dicarboxamide] | 0.1 to 1 | > 1 | –
13 | CO[C@@H](C)c1c(Nc2ccc([C@H](N(C)C(=O)C3CC3)C(F)(F)F)c(C)c2)cnc2nc(Cl)nn12 [Compound 1.29, N-[(1S)-1-[4-({2-chloro-7-[(1S)-1-methoxyethyl]-[1,2,4]triazolo[1,5-a]pyrimidin-6-yl}amino)-2-methylphenyl]-2,2,2-trifluoroethyl]-N-methylcyclopropanecarboxamide] | > 1 | > 1 | –
14 | CO[C@@H](C)c1c(Nc2ccc([C@H](N(C)C(=O)C3CCC(CNC(=O)OC(C)(C)C)CC3)C(F)(F)F)cc2)cnc2nc(Cl)nn12 (stereo partly drawn) [Compound 1.13, tert-butyl N-[(4-{[(1S)-1-[4-({2-chloro-7-[(1S)-1-methoxyethyl]-[1,2,4]triazolo[1,5-a]pyrimidin-6-yl}amino)phenyl]-2,2,2-trifluoroethyl](methyl)carbamoyl}cyclohexyl)methyl]carbamate] | 0.1 to 1 | 0.1 to 1 | –
15 | CO[C@@H](C)c1c(Nc2ccc(C(C)N(C)C(=O)C3CCC3)cc2)cnc2nc(Cl)nn12 (stereo partly drawn) [Compound 1.20, N-{1-[4-({2-chloro-7-[(1S)-1-methoxyethyl]-[1,2,4]triazolo[1,5-a]pyrimidin-6-yl}amino)phenyl]ethyl}-N-methylcyclobutanecarboxamide] | > 1 | > 1 | –
16 | CO[C@@H](C)c1c(Nc2ccc([C@H](N(C)C(=O)C3CCC3)C(F)(F)F)cc2C)cnc2nc(Cl)nn12 [Compound 1.31, N-[(1S)-1-[4-({2-chloro-7-[(1S)-1-methoxyethyl]-[1,2,4]triazolo[1,5-a]pyrimidin-6-yl}amino)-3-methylphenyl]-2,2,2-trifluoroethyl]-N-methylcyclobutanecarboxamide] | > 1 | > 1 | –
17 | CO[C@@H](C)c1c(Nc2ccc([C@H](N(C)C(=O)C3CCCN(C(=O)OC(C)(C)C)C3)C(F)(F)F)cc2)cnc2nc(Cl)nn12 (stereo partly drawn) [Compound 1.11, Tert-butyl 3-{[(1S)-1-[4-({2-chloro-7-[(1S)-1-methoxyethyl]-[1,2,4]triazolo[1,5-a]pyrimidin-6-yl}amino)phenyl]-2,2,2-trifluoroethyl](methyl)carbamoyl}piperidine-1-carboxylate] | 0.1 to 1 | > 1 | –
18 | CNC(=O)N1CCC(C(=O)N(C)[C@@H](c2ccc(Nc3cnc4nc(Cl)nn4c3[C@H](C)OC)cc2)C(F)(F)F)C1 (stereo partly drawn) [Compound 3.9, N3-[(1S)-1-[4-({2-chloro-7-[(1S)-1-methoxyethyl]-[1,2,4]triazolo[1,5-a]pyrimidin-6-yl}amino)phenyl]-2,2,2-trifluoroethyl]-N1,N3-dimethylpyrrolidine-1,3-dicarboxamide] | < 0.1 | 0.1 to 1 | –
19 | CO[C@@H](C)c1c(Nc2ccc([C@H](N(C)C(=O)C3CCC4(CC3)OCCO4)C(F)(F)F)cc2)cnc2nc(Cl)nn12 [Compound 1.7, N-[(1S)-1-[4-({2-chloro-7-[(1S)-1-methoxyethyl]-[1,2,4]triazolo[1,5-a]pyrimidin-6-yl}amino)phenyl]-2,2,2-trifluoroethyl]-N-methyl-1,4-dioxaspiro[4.5]decane-8-carboxamide] | < 0.1 | 0.1 to 1 | –
